From patent US20240277795A1, “INHIBITORS OF CYSTEINE PROTEASES AND METHODS OF USE THEREOF” (Pardes Biosciences, Inc., priority 2021, published 2024)
Like-named read-outs stand apart in the source and are kept apart here.

How the values were obtained:
HCov OC43 = test: HCoV OC43 cytopathic effect (CPE) assay; format: cell-based; conditions: Betacoronavirus 1, OC43; Table 4; CellTiter Glo
Procedure: (§1) Compounds were assayed using standard methods against multiple coronaviral strains, including HCoV 229E and OC43 strains. The antiviral activity of compounds was calculated based on the protection of the virus-induced CPE at each concentration normalized by the virus control.
(§2) Reagents and instruments used in this assay include luminescent cell viability assay kit CellTiter Glo (Promega) and Microplate Reader Synergy2 (BioTek).
Reference compound used was remdesivir; detection reagent: CellTiter Glo.) The CPE were measured by CellTiter Glo following the manufacturer's manual. The antiviral activity of compounds was calculated based on the protection of the virus-induced CPE at each concentration normalized by the virus control.
(§3) The cytotoxicity of compounds was assessed under the same conditions, but without virus infection, in parallel. Cell viability was measured with CellTiter Glo. The antiviral activity and cytotoxicity of compounds were expressed as % Inhibition and % Viability, respectively, and calculated with formulas.

SARS-COV2 Mpro = SARS-COV2 Mpro (Severe acute respiratory syndrome coronavirus 2, UniProt P0DTD1); test: COVID-19 (nCoV-2019, SARS-CoV2) Mpro enzymatic assay; format: biochemical
Procedure: (§4) Compounds were assayed using standard methods to assess compound activity and IC50. As an exemplary for assessment of the SARS-COV2 Mpro, the C-His6-tagged Mpro (NC_045512) was cloned, expressed in E. coli and purified. The assay buffer contained 20 mM of Tris-HCl (pH 7.3), 100 mM of NaCl, 1 mM of EDTA, 5 mM of TCEP and 0.1% BSA. The final concentrations of the Mpro protein and substrate were 25 nM and 25 μM, respectively, in the Mpro enzymatic assay.
The compounds were added to an assay plate. For 100% inhibition control (HPE, hundred percent effect), 1 μM GC376 was added.
(§5) IC50 values of compounds were calculated with the GraphPad Prism software using the nonlinear regression model of log(inhibitor) vs. response—Variable slope (four parameters). The inhibition activity was calculated using the formula below, IC50 values is calculated using the Inhibition % data.
[formula] • #HEP: Hundred percent effect controls. […] Containing enzyme+substrate, no compound. • Sample: Compound activity testing wells. Containing compound+enzyme+substrate. • BG: Compound background control wells. Containing compound+substrate, no enzyme.

OC43 Mpro = OC43 Mpro (Human coronavirus OC43, UniProt P0C6X6); test: OC43 Mpro enzymatic assay; format: biochemical, HCoV OC43
Chain of OC43 Mpro (P0C6X6 3247-3549): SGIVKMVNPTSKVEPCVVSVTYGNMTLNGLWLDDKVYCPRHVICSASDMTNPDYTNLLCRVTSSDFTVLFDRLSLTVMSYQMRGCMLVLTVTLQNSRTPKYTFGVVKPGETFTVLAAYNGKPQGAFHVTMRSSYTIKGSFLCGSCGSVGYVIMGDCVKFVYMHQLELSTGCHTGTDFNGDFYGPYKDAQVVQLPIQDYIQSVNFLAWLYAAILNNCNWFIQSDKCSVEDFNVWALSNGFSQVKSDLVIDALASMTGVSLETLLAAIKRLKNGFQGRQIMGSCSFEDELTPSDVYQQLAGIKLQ
Procedure: as §4, with “assay. The Km of the Mpro substrate for the protease was 13.5 μM.” for “assay.”
(§6) The compounds were added to an assay plate. For 100% inhibition control (HPE, hundred percent effect), 1 μM GC376 was added. For no inhibition control (ZPE, zero percent effect), no compound was added.
as §5
(§7) [formula] • #HEP: Hundred percent effect controls. Containing substrate+enzyme+1 μM GC376. • ZPE: Zero percent effective controls. Containing enzyme+substrate, no compound. • Sample: Compound activity testing wells. Containing compound+enzyme+substrate. • BG: Compound background control wells. Containing compound+substrate, no enzyme.

HCoV 229E = HCoV 229E cytopathic effect (CPE) assay; format: cell-based; conditions: read-out: 229E CPE EC50
Procedure: as §1, §2
Cytopathic effect (CPE) was measured by CellTiter Glo following the manufacturer's manual. The antiviral activity of compounds was calculated based on the protection of the virus-induced CPE at each concentration normalized by the virus control.
as §3

229E Mpro = 229E Mpro (Human coronavirus 229E, UniProt P0C6X1); test: 229E Mpro enzymatic assay; format: biochemical, HCoV 229E
Chain of 229E Mpro (P0C6X1 2966-3267): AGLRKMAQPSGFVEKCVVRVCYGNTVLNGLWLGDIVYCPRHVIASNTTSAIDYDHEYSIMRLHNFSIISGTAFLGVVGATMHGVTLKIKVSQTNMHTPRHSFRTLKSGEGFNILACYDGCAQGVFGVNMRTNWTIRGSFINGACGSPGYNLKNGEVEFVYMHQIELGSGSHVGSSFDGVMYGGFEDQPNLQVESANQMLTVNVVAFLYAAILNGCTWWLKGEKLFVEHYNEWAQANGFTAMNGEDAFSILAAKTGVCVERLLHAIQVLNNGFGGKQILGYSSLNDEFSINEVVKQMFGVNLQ
Procedure: as §4, with “assay. The Km of the Mpro substrate for the protease was 13.5 μM.” for “assay.”
as §6, §5, §7

[1] = Table 3, read-out: COVID-19 Mpro IC50
[2] = Table 5, read-out: COVID-19 Mpro IC50

SMILES: CC(C)(C)[C@H](NC(=O)c1cnccn1)C(=O)N1C[C@H]2[C@@H]([C@H]1C(=O)N[C@H](C#N)C[C@@H]1CCNC1=O)C2(C)C (single isomer, unassigned) [101 Isomer 1]
- EC50 (HCov OC43): < 2000 nM
- IC50 (SARS-COV2 Mpro): < 2000 nM
- IC50 (OC43 Mpro; Table 3): < 2000 nM
- EC50 (HCoV 229E; Table 4, CellTiter Glo): 2000 to 10000 nM
- IC50 (229E Mpro; Table 3): < 2000 nM

SMILES: N#C[C@H](C[C@@H]1CC2(CC2)NC1=O)NC(=O)[C@H](CC1CC1)NC(=O)[C@H](Cc1cccc2ccccc12)NC(=O)OCc1ccccc1 [Compound 110, benzyl((S)-1-(((S)-1-(((S)-1-cyano-2-((R)-5-oxo-4-azaspiro[2.4]heptan-6-yl)ethyl)amino)-3-cyclopropyl-1-oxopropan-2-yl)amino)-3-(naphthalen-1-yl)-1-oxopropan-2-yl)carbamate]
- IC50 (SARS-COV2 Mpro): < 2000 nM
- IC50 (OC43 Mpro; Table 3): < 2000 nM
- EC50 (HCoV 229E; Table 4, CellTiter Glo): < 2000 nM
- IC50 (229E Mpro; Table 3): < 2000 nM

SMILES: CC(C)(C)[C@H](NC(=O)c1cnccn1)C(=O)N1C[C@H]2[C@@H]([C@H]1C(=O)N[C@H](C#N)C[C@@H]1CC3(CC3)NC1=O)C2(C)C [Compound 129, (1R,2S,5S)—N-[(1S)-1-cyano-2-[(6R)-5-oxo-4-azaspiro[2.4]heptan-6-yl]ethyl]-3-[(2S)-3,3-dimethyl-2-(pyrazine-2-carbonylamino)butanoyl]-6,6-dimethyl-3-azabicyclo[3.1.0]hexane-2-carboxamide]
- IC50 (SARS-COV2 Mpro): < 2000 nM
- IC50 (OC43 Mpro; Table 3): < 2000 nM
- EC50 (HCoV 229E; Table 4, CellTiter Glo): < 2000 nM
- IC50 (229E Mpro; Table 3): < 2000 nM

SMILES: CC(C)(C)[C@H](NC(=O)OCC(F)(F)F)C(=O)N1C[C@H]2[C@@H]([C@H]1C(=O)N[C@H](C#N)C[C@@H]1CC3(CC3)NC1=O)C2(C)C [Compound 132, 2,2,2-trifluoroethyl ((S)-1-((1R,2S,5S)-2-(((S)-1-cyano-2-((R)-5-oxo-4-azaspiro[2.4]heptan-6-yl)ethyl)carbamoyl)-6,6-dimethyl-3-azabicyclo[3.1.0]hexan-3-yl)-3,3-dimethyl-1-oxobutan-2-yl)carbamate]
- IC50 (SARS-COV2 Mpro; [1]): < 2000 nM
- IC50 (OC43 Mpro; Table 3): < 2000 nM
- EC50 (HCoV 229E): < 2000 nM
- IC50 (229E Mpro; Table 3): < 2000 nM

SMILES: COCCOC(=O)N[C@H](C(=O)N1C[C@H]2[C@@H]([C@H]1C(=O)N[C@H](C#N)C[C@@H]1CC3(CC3)NC1=O)C2(C)C)C(C)(C)C [Compound 133, 2-methoxyethyl ((S)-1-((1R,2S,5S)-2-(((S)-1-cyano-2-((R)-5-oxo-4-azaspiro[2.4]heptan-6-yl)ethyl)carbamoyl)-6,6-dimethyl-3-azabicyclo[3.1.0]hexan-3-yl)-3,3-dimethyl-1-oxobutan-2-yl)carbamate]
- IC50 (SARS-COV2 Mpro): < 2000 nM
- IC50 (OC43 Mpro; Table 3): < 2000 nM
- EC50 (HCoV 229E; Table 4, CellTiter Glo): < 2000 nM
- IC50 (229E Mpro; Table 3): < 2000 nM

SMILES: CC(C)(C)[C@H](NC(=O)OC1CCOC1)C(=O)N1C[C@H]2[C@@H]([C@H]1C(=O)N[C@H](C#N)C[C@@H]1CC3(CC3)NC1=O)C2(C)C (stereo partly drawn) [Compound 134, tetrahydrofuran-3-yl N-[(1S)-1-[(1R,2S,5S)-2-[[(1S)-1-cyano-2-[(6R)-5-oxo-4-azaspiro[2.4]heptan-6-yl]ethyl]carbamoyl]-6,6-dimethyl-3-azabicyclo[3.1.0]hexane-3-carbonyl]-2,2-dimethyl-propyl]carbamate]
- IC50 (SARS-COV2 Mpro): < 2000 nM
- IC50 (OC43 Mpro; Table 3): < 2000 nM
- EC50 (HCoV 229E; Table 4, CellTiter Glo): < 2000 nM
- IC50 (229E Mpro; Table 3): < 2000 nM

SMILES: CC(C)(C)C(=O)N[C@H](C(=O)N1C[C@H]2[C@@H]([C@H]1C(=O)N[C@H](C#N)C[C@@H]1CC3(CC3)NC1=O)C2(C)C)C(C)(C)C [Compound 135, (1R,2S,5S)—N-[(1S)-1-cyano-2-[(6R)-5-oxo-4-azaspiro[2.4]heptan-6-yl]ethyl]-3-[(2S)-2-(2,2-dimethylpropanoylamino)-3,3-dimethyl-butanoyl]-6,6-dimethyl-3-azabicyclo[3.1.0]hexane-2-carboxamide]
- IC50 (SARS-COV2 Mpro): < 2000 nM
- IC50 (OC43 Mpro; Table 3): < 2000 nM
- EC50 (HCoV 229E; Table 4, CellTiter Glo): < 2000 nM
- IC50 (229E Mpro; Table 3): < 2000 nM

SMILES: CC(C)(C)[C@H](NC(=O)C1(C(F)(F)F)CC1)C(=O)N1C[C@H]2[C@@H]([C@H]1C(=O)N[C@H](C#N)C[C@@H]1CC3(CC3)NC1=O)C2(C)C [Compound 136, (1R,2S,5S)—N-[(1S)-1-cyano-2-[(6R)-5-oxo-4-azaspiro[2.4]heptan-6-yl]ethyl]-3-[(2S)-3,3-dimethyl-2-[[1-(trifluoromethyl)cyclopropanecarbonyl]amino]butanoyl]-6,6-dimethyl-3-azabicyclo[3.1.0]hexane-2-carboxamide]
- IC50 (SARS-COV2 Mpro): < 2000 nM
- IC50 (OC43 Mpro; Table 3): < 2000 nM
- EC50 (HCoV 229E; Table 4, CellTiter Glo): < 2000 nM
- IC50 (229E Mpro; Table 3): < 2000 nM

SMILES: C[C@@H](OC(C)(C)C(F)(F)F)[C@H](NC(=O)C(F)(F)F)C(=O)N1C[C@H]2[C@@H]([C@H]1C(=O)N[C@H](C#N)C[C@@H]1CC3(CC3)NC1=O)C2(C)C [Compound 358, (1R,2S,5S)—N-[(1S)-1-cyan-2-[(6R)-5-oxo-4-azaspiro[2.4]heptan-6-yl]ethyl]-6,6-dimethyl-3-[(2S,3R)-2-[(2,2,2-trifluoroacetyl)amino]-3-(2,2,2-trifluoro-1,1-dimethyl-ethoxy)butanoyl]-3-azabicyclo[3.1.0]hexane-2-carboxamide]
- IC50 (SARS-COV2 Mpro; [2]): < 2000 nM
- IC50 (OC43 Mpro; Table 5): < 2000 nM
- IC50 (229E Mpro; Table 5): < 2000 nM

SMILES: CC1(C)CCC(C[C@@H](C#N)NC(=O)[C@@H]2[C@@H]3[C@H](CN2C(=O)[C@@H](NC(=O)C(F)(F)F)C(C)(C)C)C3(C)C)C(=O)N1 (stereo partly drawn) [Compound 361, (1R,5S)—N-[(1S)-1-cyano-2-(6,6-dimethyl-2-oxo-3-piperidyl)ethyl]-3-[(2S)-3,3-dimethyl-2-[(2,2,2-trifluoroacetyl)amino]butanoyl]-6,6-dimethyl-3-azabicyclo[3.1.0]hexane-2-carboxamide]
- IC50 (SARS-COV2 Mpro; [1]): < 2000 nM
- IC50 (OC43 Mpro; Table 3): < 2000 nM
- IC50 (229E Mpro; Table 3): 10000 to 30000 nM

SMILES: CC(C)(C)[C@H](NC(=O)C(F)(F)F)C(=O)N1C[C@H]2[C@@H]([C@H]1C(=O)N[C@H](C#N)C[C@@H]1CC3(CCC3)NC1=O)C2(C)C [Compound 362, (1R,2S,5S)—N-[(1S)-1-cyano-2-[(7R)-6-oxo-5-azaspiro[3.4]octan-7-yl]ethyl]-3-[(2S)-3,3-dimethyl-2-[(2,2,2-trifluoroacetyl)amino]butanoyl]-6,6-dimethyl-3-azabicyclo[3.1.0]hexane-2-carboxamide]
- IC50 (SARS-COV2 Mpro; [1]): < 2000 nM
- IC50 (OC43 Mpro; Table 3): < 2000 nM
- IC50 (229E Mpro; Table 3): < 2000 nM

SMILES: CC(C)(C)[C@H](NC(=O)C(F)(F)F)C(=O)N1C[C@H]2[C@@H]([C@H]1C(=O)N[C@H](C#N)C[C@@]1(C)CC3(CC3)NC1=O)C2(C)C [Compound 375]
- IC50 (SARS-COV2 Mpro; [1]): < 2000 nM
- IC50 (OC43 Mpro; Table 3): < 2000 nM
- IC50 (229E Mpro; Table 3): < 2000 nM

SMILES: CO[C@H](C)[C@H](NC(=O)C(F)(F)F)C(=O)N1C[C@H]2[C@@H]([C@H]1C(=O)N[C@H](C#N)C[C@@H]1CC3(CCC3)NC1=O)C2(C)C [Compound 425, (1R,2S,5S)—N-[(1S)-1-cyano-2-[(7R)-6-oxo-5-azaspiro[3.4]octan-7-yl]ethyl]-3-[(2S,3R)-3-methoxy-2-[(2,2,2-trifluoroacetyl)amino]butanoyl]-6,6-dimethyl-3-azabicyclo[3.1.0]hexane-2-carboxamide]
- IC50 (SARS-COV2 Mpro; [2]): < 2000 nM
- IC50 (OC43 Mpro; Table 5): < 2000 nM
- IC50 (229E Mpro; Table 5): < 2000 nM

SMILES: C[C@@H](OC(C)(C)C)[C@H](NC(=O)C(F)(F)F)C(=O)N1C[C@H]2[C@@H]([C@H]1C(=O)N[C@H](C#N)C[C@@H]1CCCNC1=O)C2(C)C [Compound 431, (1R, 2S, 5S)-3-((2S, 3R)-3-(tert-butoxy)-2-(2,2,2-trifluoroacetamido)butanoyl)-N—((S)-1-cyano-2-((S)-2-oxopiperidin-3-yl)ethyl)-6,6-dimethyl-3-azabicyclo[3.1.0]hexane-2-carboxamide]
- IC50 (SARS-COV2 Mpro; [2]): < 2000 nM
- IC50 (OC43 Mpro; Table 5): < 2000 nM
- IC50 (229E Mpro; Table 5): < 2000 nM
